According to US20260146991A1, “COMPOSITION AND METHODS OF AGING-RELATED AGENT SCREENING AND TARGET ANALYSIS” (Centre for Translational Stem Cell Biology Limited, priority 2022, published 2026):
Entries after “also recorded” stand apart in the source; their conditions may differ.

Assays:
model organisms = settings: yeast, worms, flies, male mice; background; cited from earlier work
[1] = background; cited from earlier work
[2] = test system: TSCs differentiating towards STBs; experiment: Cell morphology, viability and proliferation during TSC-STB differentiation; format: cell-based, human; settings: for morphology: appearance of multinucleated STB cells: treated cells during TSC-STB differentiation, FIG. 4E
Experimental: (§1) To generate the hTSC cell lines, the single cell suspension of hEPSCs were plated on a 6-well plate (1-2×10^3/well) pre-coated with 10 mg/mL Geltrex™ LDEV-Free Reduced Growth Factor Basement Membrane Matrix or Matrigel and cultured in human trophoblast stem cell medium (hTSCM) for 7-10 days. Then single colonies of the differentiated cells on the 6-well plate were picked and expanded. The expanded cell lines were validated with trophoblast markers and RNA-Seq analysis. The established TSC cell lines were maintained in the hTSCM medium and passaged at ratio 1:4-1:5 every 3-5 days. The hTSCM was DMEM/F12 based medium supported with: 110 μM β-mercaptoethanol, 0.2% FBS, 0.5% Penicillin-Streptomycin-Glutamine, 0.3% BSA, 1×ITS-X supplement, 50.0 μg/mL Vc, 50.0 ng/ml EGF, 2.0 μM CHIR99021, 0.5 μM A83-01, 1.0 μM SB431542, 0.8 μM VPA, and 5.0 μM Y27632. Established TSC cells were seeded at 1.0×10^5-2×10^5 cells per well in a six-well plate pre-coated with 10 mg/mL Geltrex™ LDEV-Free Reduced Growth Factor Basement Membrane Matrix or Matrigel, and were induced to differentiate into STBs after culturing in syncytiotrophoblasts medium (STBM) for around 6 days. The STBM comprises: DMEM/F12 supplemented with 110 μM β-mercaptoethanol, 0.5% Penicillin-Streptomycin, 0.3% BSA, 1×ITS-X, 2.5 μM Y27632, 2 μM Forskolin, and 4% KnockOut Serum Replacement. The cells became early syncytiotrophoblasts on day 2-3, and mature syncytiotrophoblasts around day 6.
(§2) Same number of TSCs in robust growing state were seeded in STBM with/without a candidate agent in a black Polystyrene TC-treated 96-well Microplate pre-coated with 10 mg/ml Geltrex™ LDEV-Free Reduced Growth Factor Basement Membrane Matrix or Matrigel (1.5×10^4-2×10^4 cells per well). On each screening microplate, 3 wells of control (cells only with 0.5% DMSO in 100 μL STB growth medium) and 3 wells of positive control (some well-known anti-ageing agents in certain concentration) were included. The cells were cultured at 37° C. and 5% CO2 with saturating humidity and differentiated into mature STB in the medium for 6 days. Cell morphology was monitored daily under a microscope. The signal readouts of reporter molecules was assessed on day 2, day 4, and day 6. On day 6, cells in each well were fixed and stained with DAPI or Hoechst, and cell count and intensity (both reporter and nuclei) were assessed using high content microscopy to assess the agent's effects and cell viability. The agents, especially those that affect cell viability will also be tested at different concentrations and at different day during the STB differentiation process.
(§3) First, a known anti-aging drug Rapamycin was tested. TSCs in good growing state were seeded at 1.0×10^4-2×10^4 cells per well in a 24-well plate pre-coated with 10 mg/mL Geltrex™ LDEV-Free Reduced Growth Factor Basement Membrane Matrix or Matrigel. After 24 hours, 3 wells continued in TSCM; 3 wells switched to STBM+DMSO; 3 wells switched to STBM+Rapamycin (500 nM). The media was changed every 2-3 days. On day 6, β-hCG was measured by ELISA as described in Example 1. Expression of aging-related marker genes (e.g., CGA and CGB3) was measured by RT-qPCR as described in Example 1.

TSC-STB differentiation = experiment: TSC-STB system, overall evaluation of anti-aging effect; format: cell-based, human; settings: summary statement
Experimental: as §2, §3

[3] = test system: TSCs differentiating towards STBs; experiment: RT-qPCR of aging-related marker genes during TSC-STB differentiation; format: cell-based, human; settings: FIG. 4H
Experimental: as §1
RT-qPCR: Total RNA was extracted using RNeasy Mini Kit (Qiagen) per manufacturer specification. Extracted RNA was then reverse transcribed to cDNA using Fastking gDNA diselling RT SuperMix (Tiangen). Gene expression was measured using PowerUp™ SYBR™ Green Master Mix (Applied Biosystems) and StepOnePlus™ Real-Time PCR (Applied Biosystems) with the primers listed in Table E1A. Raw gene expression data was normalized to GAPDH by using the ΔCt method. Statistical analysis was carried out using either one/two-tailed student's t-test in Prism 8 (GraphPad).
as §3

[4] = test system: TSCs differentiating towards STBs; experiment: Western blot of β-hCG during TSC-STB differentiation; format: cell-based, human; settings: at certain / different concentrations, FIG. 4I
Experimental: Western blot: The proteins were extracted with RIPA lysis (thermofisher, Cat. 89901) and Pierce Protease Inhibitor Mini Tablets (thermofisher, Cat. A32953). Protein concentrations were measured with Pierce™ BCA Protein Assay Kits (thermofisher, Cat. 23227). Then samples with certain amount of NuPAGE™ LDS Sample Buffer (4×) (thermofisher, Cat. NP0008) were boiled at 70 degree for 10 min. Boiled samples were loaded with the same amount and separated in 12% polyacrylamide gels (Thermofisher Cat. NP0343BOX) and transferred to PVDF membranes using the Bio-Rad transblot turbo system according to the manufacturer's guidance. Images were developed by the ChemiDoc Imaging System and processed with ImageJ 1.47v. The following primary antibodies were used: anti-GAPDH (thermosfisher, Cat. AM4300, 1:10000 for western blot), anti-Ki67 (thermofisher, Cat. MA5-14520, 1:1000 for western blot, 1:200 for IF), anti-HERVK-gag (Austral Biologicals, Cat. HERM-1811-5, 1:200 for IF), anti-TRF1 (Abcam, Cat. ab 10579, 1:100 for IF), anti-ZO-1 (CST, Cat. 13663, 1:200 for IF), anti-CGB3 (Abcam, Cat. Ab131170, 1:200 for IF), anti-H3 (CST, Cat. 4499 1:2000 for western blot), anti-H3K9mc3 (Abcam, Cat. ab8898, 1:1000 for western blot), anti-E-cadherin (CST, Cat. 14472, 1:200 for IF), anti-p38 MAPK (thermofisher, Cat. 338700, 1:1000 for western blot), anti-LaminB1 (thermofisher, Cat. 702972, 1:1000 for western blot, 1:200 for IF), anti-p27 Kip1 (thermofisher, Cat. PA527188, 1:1000 for western blot), anti-Hp1 gamma (thermofisher, Cat. MA3054, 1:1000 for western blot, 1:300 for IF), anti-SIRT1 (CST, Cat. 8469S, 1:1000 for western blot), anti-SIRT6 (CST, Cat. 12486S, 1:1000 for western blot), anti-SIRT3 (thermofisher, Cat. MA514910, 1:1000 for western blot), anti-p53 (thermofisher, Cat. MA512557, 1:1000 for western blot, 1:200 for IF), anti-gammaH2AX (CST, Cat. 2577s, 1:1000 for western blot, 1:200 for IF), anti-IL-6 (thermofisher, Cat. MA523698, 1:50 for IF), anti-hCG (thermofisher, Cat. 14-6508-82, 1:1000 for western blot, 1:200 for IF). […]

[5] = test system: TSCs differentiating towards STBs; experiment: ELISA of secreted β-hCG during TSC-STB differentiation; format: cell-based, human; settings: compared to the DMSO control group; FIG. 4F
Experimental: as §1, with “The STBM comprises: DMEM/F12 supplemented with 110 μM β-mercaptoethanol, 0.5% Penicillin-Streptomycin, 0.3% BSA, 1×ITS-X, 2.5 μM Y27632, 2 μM Forskolin, and 4% KnockOut Serum Replacement. The cells became early syncytiotrophoblasts on day 2-3, and mature syncytiotrophoblasts around day 6.” left out
First, a known anti-aging drug Rapamycin was tested. […] On day 6, β-hCG was measured by ELISA as described in Example 1. Expression of aging-related marker genes (e.g., CGA and CGB3) was measured by RT-qPCR as described in Example 1.

Molecule | morphology: appearance of multinucleated STB cells [2] | anti-aging effect in the TSC-STB system (TSC-STB differentiation) | CGA expression ([3]; 1 μM) | CGA expression ([3]; 10 μM) | other results
CC(=O)Oc1ccccc1C(=O)O [aspirin] | – | – | – | – | lifespan in some model organisms (model organisms): extend lifespan; side effects in humans [1]: increase the risk of gastrointestinal bleeding
CC(C)C[C@H](NC(=O)OCc1ccccc1)C(=O)N[C@@H](C[C@@H]1CCNC1=O)C(O)S(=O)(=O)[O-].[Na+] (some centres unmarked) [GC376] | delayed appearance of multinucleated STB cells | – | – | – | –
NC(=O)c1ccc[n+]([C@@H]2O[C@H](COP(=O)([O-])O)[C@@H](O)[C@H]2O)c1 [NMN, Nicotinamide mononucleotide] | – | showed anti-aging effects as expected | reduced | increasing | –
O=c1c(O)c(-c2ccc(O)c(O)c2)oc2cc(O)cc(O)c12 [Quercetin] | – | showed anti-aging effects as expected | decrease | decrease | –
STM2457 | delayed appearance of multinucleated STB cells | – | – | – | –
Cc1ccc(-c2cc(C(F)(F)F)nn2-c2ccc(S(N)(=O)=O)cc2)cc1 [celecoxib] | – | – | – | – | side effects in humans [1]: major bleeding events and increase in all-cause mortality
CC(C)Cc1ccc(C(C)C(=O)O)cc1 (centres unmarked) [ibuprofen] | – | – | – | – | lifespan in some model organisms (model organisms): extend lifespan; side effects in humans [1]: major bleeding events and increase in all-cause mortality
O=c1c(O)c(-c2ccc(O)c(O)c2)oc2cc(O)ccc12 [Fisetin] | – | showed anti-aging effects as expected | reduced | increasing | β-hCG expression (Western blot) [4]: reduced; β-hCG expression (Western blot) ([4]; listed as Fisctin): significantly reduce
CO[C@H]1C[C@@H]2CC[C@@H](C)[C@@](O)(O2)C(=O)C(=O)N2CCCC[C@H]2C(=O)O[C@H]([C@H](C)C[C@@H]2CC[C@@H](O)[C@H](OC)C2)CC(=O)[C@H](C)/C=C(\C)[C@@H](O)[C@@H](OC)C(=O)[C@H](C)C[C@H](C)/C=C/C=C/C=C/1C [Rapamycin] | – | – | – | – | cell viability or proliferation ([2]; 500 nM, FIG. 4A): did not affect
CN(C)C(=N)N=C(N)N [metformin] | – | showed anti-aging effects as expected | – | – | –
NCCCCNCCCN [Spermdine] | – | – | decrease | decrease | –
CC(C)C(=O)OC[C@H]1O[C@@H](n2ccc(NO)nc2=O)[C@H](O)[C@@H]1O [Molnupiravir] | delayed appearance of multinucleated STB cells | – | – | – | –
CC(C)n1nc(-c2ccc3oc(N)nc3c2)c2c(N)ncnc21 [INK128] | delayed appearance of multinucleated STB cells | – | – | – | secreted β-hCG level (ELISA) [5]: significantly lower; β-hCG expression (Western blot) [4]: significantly reduce; also recorded: reduced
